In USRE39192E1, “Supplemented and unsupplemented tissue sealants, methods of their production and use” (American National Red Cross, priority 1990, dated 2006):

Assays:
[1] = Saturation concentration of 5-FU in water; assay type: physicochemical
[2] = Release of 5-FU from FG clots; details: clots containing 50 mg of solid anhydrous 5-FU
[3] = test system: human ovarian carcinoma cell (OVACAR); assay: Growth inhibition of OVCAR cells by eluates of taxol-supplemented fibrin sealant (MTT assay); assay type: cell-based; details: taxol in solid anhydrous form
Description: The kinetics of taxol delivery from fibrin sealant were initially evaluated, by incorporating taxol (0.26 mg), either as an anhydrous solid or dissolved in ethanol, into 400 μl fibrin sealant composition. The resulting supplemented fibrin matrices were then placed in 2 ml histidine buffer, and incubated at 37° C. The buffer was exchanged after two days, and again ten days later. The relative concentration of taxol in the resulting eluates determined by measuring their ability to inhibit the growth of a human ovarian carcinoma cell (OVACAR) in vitro (MacPhee et al., In Current Trends in Surgical Tissue Adhesives: Proceedings of the First International Symposium on Surgical Adhesives, R. Saltz and D. Sierra, eds. Springer-Verlag).
Briefly, 1000 OVCAR cells in 100 μl of growth medium were plated into each well of a 96 well culture plate and incubated for 24 hours. A 100 μl volume of various dilutions of the eluates was then placed into the wells (10 wells per dilution), and the plate incubated at 37° C. After five days, the number of cells in each well was measured using the MTT assay (Rapaport et al., American Journal of Clinical Pathology 97:84 (1992)). […] The resulting chromaphore is detected by spectrophotometry at 570 nm. […]

[4] = test system: human umbilical endothelial cells; assay: Human umbilical endothelial cells embedded in FG; assay type: cell-based; details: within 24 hours, maintained at least 5 days
Description: To study their growth, human umbilical endothelial cells, 10^5 or more cells per ml, were embedded in FG, the protein concentration of which was 4 mg/ml. The concentration of thrombin in the FG was adjusted to 0.6 NIH U/ml. The culture medium used in all of the experiments was M199 (Sigma Chemical Co., St. Louis, Mo.) supplemented with 10% fetal bovine serum, 10 μg/ml streptomycin, 100 U/ml penicillin, 1 ng/ml FGF-1 and 10 U/ml heparin.
As a control, an identical cell suspension was cultured on a surface coated with fibronectin at 10 μg/cm^2. […] FIGS. 9 and 10 show this situation at 24 and 48 hours, respectively.

NIH 3T3 fibroblasts = assay: Cell chemotaxis assay (modified Boyden's chamber), NIH 3T3 fibroblasts; assay type: cell-based
Description: (§1) NIH/3T3 fibroblasts at passage 126 were purchased from the American Type Culture Collection, Rockville, Md. Cultures from passages 129-133 were used in the chemotaxis assays. Cultures were propagated in DMEM supplemented with 10%. Calf serum and approximately 1% antibiotic antimycotic solution. Human dermal fibroblasts (HDFs) were purchased from Clonetics, Inc. (San Diego, Calif.) at passage 2. Cultures from passages 3-5 were used in the chemotaxis assays. Cultures were cultivated in DMEM supplemented with 20% FBS (Hyclone Laboratories, Inc., Logan, Utah) and approximately 1% antibiotic antimycotic solution (Gibco, Grand Island, N.Y.).
The procedure used to determine cellular chemotaxis was a combination of two known methodologies. A modification of Boyden's chamber was used as follows: Millicell-PCF (Millipore, Inc., Bedford, Mass.) (12.0 μm) 12.0 mm diameter inserts were placed in individual wells of 24 well plates to create the upper and lower chemotaxis chambers. Chemotaxis results were arrived at by performing checkerboard analysis for every combination of cells and growth factors. […] Briefly, cultures were trypsanized and placed in DMEM+0.1% Bovine Serum Albumin (BSA) (Sigma Chemical Co., St. Louis, Mo.) for approximately one hour at 37° C. in a 5% CO2 humidified chamber. Tow to 2.5×10^5 cells in 50 μl were added per insert to the upper chamber of the setup of the 24 well plates. Treatments were added as mentioned above. The assay was kept at 37° C. in a 5% CO2 humidified chamber for 4 hours. All combinations tested were performed in triplicate. At the end of 4 hours, the plates were removed from the incubator and the filters were stained following the protocol for staining included with the Millicell-PCT inserts. Briefly, the fluid surrounding the inside and outside of the Millicell-PCF inserts were removed. Three percent glutaraldehyde (Sigma Chemical Co., St. Louis, Mo.) was added to the outside and inside of the inserts for approximately 20 minutes. Following removal of the 3.0% glutaraldehyde, 0.5% Triton X-100 (E.M. Science, Cherry Hill, N.J.) was added for 5-7 minutes. On removal of the 0.5% Triton X-100, Fisher's Hematoxylin Solution Gill's Formulation (Fisher Scientific, Newark, Del.) No.1 was added for about 10 minutes. This solution was washed off in running distilled water for about 5 minutes. Using a cotton swab the upper side of the filter was swabbed to remove cells which had not migrated. Filters, were mounted lower side facing up on slides in Crystal Mount™ (Biomedia, Inc., Foster City, Calif.) solution and 10 random field were counted per slide both visually at 400× and at 200×using an Image Analyzing System to automate the enumeration of the cells on the underside of the filters.
(§2) As required, checkerboard analysis was carried out to determine random migration, and positive and negative chemotaxis. Growth factors were added to the upper and/or lower chambers to observe whether cells migrated towards the GF alone (chemotaxis), whether migration was random irrespective of whether the growth factor was added to the upper or lower well (chemokinesis) or whether cell migration was against the chemotactic gradient (negative chemotaxis).

[5] = test system: human dermal fibroblasts (HDFs); assay: Cell chemotaxis assay (modified Boyden's chamber), human dermal fibroblasts; assay type: cell-based
Description: as §1
The procedure used to determine cellular chemotaxis was a combination of two known methodologies. A modification of Boyden's chamber was used as follows: Millicell-PCF (Millipore, Inc., Bedford, Mass.) (12.0 μm) 12.0 mm diameter inserts were placed in individual wells of 24 well plates to create the upper and lower chemotaxis chambers. Chemotaxis results were arrived at by performing checkerboard analysis for every combination of cells and growth factors. Concentrations ranging from 0.1, 1, 10, 100 ng/ml with/without added heparin (10 U/ml) were used for FGF-1, FGF-2 (no heparin) and FGF-4 with all the cell types mentioned in the materials section. Briefly, cultures were trypsanized and placed in DMEM+0.1% Bovine Serum Albumin (BSA) (Sigma Chemical Co., St. Louis, Mo.) for approximately one hour at 37° C. in a 5% CO2 humidified chamber. Tow to 2.5×10^5 cells in 50 μl were added per insert to the upper chamber of the setup of the 24 well plates. Treatments were added as mentioned above. The assay was kept at 37° C. in a 5% CO2 humidified chamber for 4 hours. All combinations tested were performed in triplicate. At the end of 4 hours, the plates were removed from the incubator and the filters were stained following the protocol for staining included with the Millicell-PCT inserts. Briefly, the fluid surrounding the inside and outside of the Millicell-PCF inserts were removed. Three percent glutaraldehyde (Sigma Chemical Co., St. Louis, Mo.) was added to the outside and inside of the inserts for approximately 20 minutes. Following removal of the 3.0% glutaraldehyde, 0.5% Triton X-100 (E.M. Science, Cherry Hill, N.J.) was added for 5-7 minutes. On removal of the 0.5% Triton X-100, Fisher's Hematoxylin Solution Gill's Formulation (Fisher Scientific, Newark, Del.) No.1 was added for about 10 minutes. This solution was washed off in running distilled water for about 5 minutes. Using a cotton swab the upper side of the filter was swabbed to remove cells which had not migrated. Filters, were mounted lower side facing up on slides in Crystal Mount™ (Biomedia, Inc., Foster City, Calif.) solution and 10 random field were counted per slide both visually at 400× and at 200×using an Image Analyzing System to automate the enumeration of the cells on the underside of the filters.
as §2

[6] = Compatibility of TGF-β2 in Topical Fibrinogen Complex (ELISA, bio-assay); details: after two weeks in TFC at 2-8° C.
Description: Fibrinogen and thrombin were prepared per instruction of the American Red Cross, Rockville, Md. Upon reconstitution, the protein concentration of the Topical Fibrinogen Complex, (TFC) was 120 mg/ml (the standard formulation for hemostasis). The human thrombin was reconstituted with 40 mM CaCl2 to yield a solution at 300 units/ml.
To evaluate the compatibility of transforming growth factor β2 (TGF-β2) in Topical Fibrinogen Complex, TFG-β2 (purified recombinant human protein provided by Genzyme Corp., Framingham, Mass.) was spiked into TFC at 10 and 1 μg/ml. Samples were incubated for two weeks at 2-8° C. TGF-β2 was extracted for analysis by passing the gel-like material through a narrow bore stopcock connected to two syringes.

O=c1[nH]cc(F)c(=O)[nH]1 [5-FU, 5-fluorouracil]
concentration in water saturated with 5-FU [1]: 17 mg/mL | duration of 5-FU delivery [2]: at least 75 hours

CC(=O)O[C@H]1C(=O)[C@@]2(C)[C@H]([C@H](OC(=O)c3ccccc3)[C@]3(O)C[C@H](OC(=O)[C@H](O)[C@@H](NC(=O)c4ccccc4)c4ccccc4)C(C)=C1C3(C)C)[C@]1(OC(C)=O)CO[C@@H]1C[C@@H]2O [taxol, paclitaxel]
time OVCAR cells were significantly inhibited [3]: up to 85 days

fibronectin [reference compound]
cell morphology [4]: acquired a cobblestone shape | concentration of maximal chemotactic response (NIH 3T3 fibroblasts): 20 µg/mL | migrated cells (checkerboard analysis) (NIH 3T3 fibroblasts; lower 0 μg/ml, upper 20 μg/ml): 69.6 +/− 12.25 | migrated cells (checkerboard analysis) (NIH 3T3 fibroblasts; lower 0 μg/ml, upper 50 μg/ml): 62.0 +/− 2.616 | migrated cells (checkerboard analysis) (NIH 3T3 fibroblasts; lower 10 μg/ml, upper 0 μg/ml): 68.03 +/− 10.793 | migrated cells (checkerboard analysis) (NIH 3T3 fibroblasts; lower 10 μg/ml, upper 10 μg/ml): 47.53 +/− 5.605 | migrated cells (checkerboard analysis) (NIH 3T3 fibroblasts; lower 10 μg/ml, upper 20 μg/ml): 64.86 +/− 7.961 | migrated cells (checkerboard analysis) (NIH 3T3 fibroblasts; lower 10 μg/ml, upper 50 μg/ml): 74.66 +/− 3.946 | migrated cells (checkerboard analysis) (NIH 3T3 fibroblasts; lower 20 μg/ml, upper 0 μg/ml): 90.53 +/− 5.203 | migrated cells (checkerboard analysis) (NIH 3T3 fibroblasts; lower 20 μg/ml, upper 10 μg/ml): 88.73 +/− 4.152 | migrated cells (checkerboard analysis) (NIH 3T3 fibroblasts; lower 20 μg/ml, upper 20 μg/ml): 56.9 +/− 3.289 | migrated cells (checkerboard analysis) (NIH 3T3 fibroblasts; lower 20 μg/ml, upper 50 μg/ml): 76.23 +/− 1.8190 | migrated cells (checkerboard analysis) (NIH 3T3 fibroblasts; lower 50 μg/ml, upper 0 μg/ml): 72.43 +/− 8.276 | migrated cells (checkerboard analysis) (NIH 3T3 fibroblasts; lower 50 μg/ml, upper 10 μg/ml): 91.3 +/− 1.003 | migrated cells (checkerboard analysis) (NIH 3T3 fibroblasts; lower 50 μg/ml, upper 20 μg/ml): 63.26 +/− 3.835 | migrated cells (checkerboard analysis) (NIH 3T3 fibroblasts; lower 50 μg/ml, upper 50 μg/ml): 57.46 +/− 2.287 | migrated cells (checkerboard analysis) (NIH 3T3 fibroblasts; lower compartment 0 μg/ml, upper compartment 10 μg/ml): 62.3 +/− 3.269 | concentration of maximal chemotactic response [5]: 20 µg/mL

B1: TGF-β2: purified recombinant human protein provided by Genzyme Corp., spiked into TFC / fibrin clot (protein, UniProt P61812 303-414, looked up)
Transforming growth factor …: ALDAAYCFRNVQDNCCLRPLYIDFKRDLGWKWIHEPKGYNANFCAGACPYLWSSDTQHSRVLSLYNTINPEASASPCCVSQDLEPLTILYYIGKTPKIEQLSNMIVKSCKCS
bio-assay of extract [6]: bioactive
